# Assays:
# hsp65-PLNC = test: T cell proliferation assay, hsp65-PLNC; type: cell-based, Lewis rats; details: PLNC from hsp65-immunised rats; peptides 5 and 20 µg/ml
# Procedure: Immunisations and primed lymph node populations: Rats were immunised with either Mt or hsp65. Mt was suspended at 5 mg/ml in IFA or DDA and 100 µl injected in each hind footpad (i.e. 500 µg/footpad, 1 mg/rat). Hsp65 (1 mg/ml in PBS) was mixed 1:1 with DDA and 100 µl injected (i.e. 50 µg/footpad, 100 µg/rat). Ten to 21 days later, draining popliteal lymph nodes were removed, disaggregated, washed three times and used as a source of primed lymph node cells (PLNC). In control experiments splenocytes and lymph nodes from unimmunised rats and PLNC from rats immunised with IFA or DDA/PBS alone were used.
# T cell proliferation assays: PLNC were cultured in triplicate in 200 µl flat bottom microtitre wells (Costar) at 2 x 10^5 cells per well with or without antigen. In initial experiments PLNC were tested for responsiveness to individual peptides at concentrations of 5 and 20 µg/ml, and Mt, hsp65 and PPD over a range of concentrations. Concanavalin A (2 µg/ml) was used as a positive control for T cell proliferation. Cultures were incubated for 96 h at 37°C in a humidified atmosphere of 5% CO2. Cultures were pulsed for the final 16 h with [^3H] TdR (Amersham, U.K., 1 uCi/well) and TdR uptake measured using a liquid scintillation β counter. Assays using T cell lines were performed as above using 2 x 10^4 line cells per well with irradiated (30 Gy) syngeneic accessory cells (either 3 x 10^5 splenocytes/well or 10^6 thymocytes/well). Results are expressed as mean counts per minute (cpm) of triplicate cultures. In experiments where responses to Ag were low, responses were considered significant if the stimulation index (S.I. = […]) was greater than two and Student's t tests gave p < 0.01.
# Hsp65-PLNC were analysed for responsiveness to a panel of peptides covering the entire sequence of hsp65 (Fig. 3a). […] In terms of magnitude of response, three regions of the molecule (residues 176-190, 211-230 and 221-240) appeared to contain the "dominant" T cell epitopes, while regions 86-100. 251-270, 396-410 and 506-525 contained "subdominant" or minor epitopes.
# adjuvant arthritis = test: Adjuvant arthritis (AA) induced with Mt in IFA, clinical arthritis score; type: in vivo, Lewis rats; details: 100 µg peptide in DDA, hind footpads, 7 days prior to AA induction with Mt
# Procedure: Induction and clinical assessment of experimental arthritis: Arthritis was induced by a single intradermal injection in the base of the tail. AA was induced with 0.5 mg Mt suspended in 100 µl IFA. CP20961 arthritis was induced with 2 mg CP20961 in 100 µl light mineral oil (Sigma). Rats were examined daily for clinical signs of arthritis. Severity of arthritis was assessed by scoring each paw from zero to four based on degree of swelling, erythema and deformity of the joints. Thus the maximum possible arthritis score was 16.
# Modulation of arthritis with hsp65 peptides and epitope-specific T cell lines: Synthetic peptides corresponding to eight T cell epitopes present in mycobacterial hsp65 were tested for protective effects on arthritis development. Rats were immunised with 100 µg of individual peptide seven days prior to arthritis induction. Peptides were immunised in each hind footpad in 10 mg/ml DDA (50 µl/pad). Control rats received only PBS/DDA. Epitope-specific T cell lines were also tested for protective activity by intravenous administration of lines at the time of arthritis induction. T cell lines were restimulated in vitro with irradiated spleen APC and specific peptide. Four days later T cell blasts were harvested by ficoll gradient, washed and applied to a second ficoll gradient to remove any contaminating APC. T cells were washed twice in wash medium and twice in PBS and finally suspended at 2.5x10^7/ml in PBS. Immediately prior to injection of Mt, 200 µl (i.e. 5x10^6) T cells were injected i.v. in the tail vein.
# The effects of preimmunisation with synthetic peptides containing individual epitopes on the development of AA were analysed (Fig. 7). The eight peptides which primed for epitope specific T cells were tested. Rats were immunised with 100 µg of peptide 7 days prior to AA-induction with Mt.
# RT1.B^1 molecules = test: Inhibition of proliferation of T cell lines with other Ag specificities (MHC affinity, preliminary); type: cell-based, Lewis rats; details: preliminary experiments, data not shown
# Procedure: The relatively low quantities of hsp65 present in the Mt preparation might result in focusing of T cell responses on hsp65 epitopes with higher affinities for MHC class II molecules. […] Thus, when Ag concentrations are limited (i.e. following Mt immunisation) dominance of T cell epitopes might be more dependent on their relative MHC binding affinities, whereas following immunisation with large quantities of specific antigen (50-100 µg hsp65 per rat) relative dominance might not be simply a function of affinity for MHC. Clearly, antigen processing of the intact hsp65 molecule will determine the peptide fragments generated during in vivo priming, and the naturally processed fragments will not be identical to the synthetic 15mers used in this study. Also the molecular context of hsp65 (i.e recombinant monomeric hsp65, or the multimeric native protein in the Mt preparation) could affect antigen processing and influence the pattern of epitope recognition.
substance,measurement,setting,value
peptide 176-190: synthetic 15mer of mycobacterial hsp65 containing the AA-associated epitope 180-188,hsp65-PLNC proliferative response to peptide,hsp65-PLNC,dominant
same,protection against AA development after peptide preimmunisation,adjuvant arthritis,no effect on AA onset
same,affinity for RT1.B^1 molecules relative to peptides 211-225 or 226-240,RT1.B^1 molecules,higher affinity
